Assay results as given in patent publication US7531505B2, “Compositions and methods for promoting attachment of cells of endothelial cell lineage to medical devices” (Affinergy, Inc., priority 2006, dated 2009).
Like-named read-outs stand apart in the source and are kept apart here. Values belong to the substance of their own block, whether it stands above or below them.

How the values were obtained:
[1] = test system: human coronary endothelial cells, porcine coronary endothelial cells, and endothelial progenitor cells; experiment: FACS binding of biotin-tagged peptides to cells of endothelial cell lineage in whole blood; type: cell-based, human or Porcine
Method: Several of the endothelial-binding domains listed in Table 3 with desirable binding specificities (e.g., SEQ ID NOs: 9-18, 23-28, 30-32, and 35) were further characterized for binding to various cell types in whole blood by FACS, by synthesizing the peptides with a C-terminal biotin tag. Cells were harvested from cell culture flasks using trypsin/EDTA. The cells were neutralized with complete (serum-containing) media and allowed to recover at 37° C. for at least 20 minutes. Each cell type was labeled with its corresponding antibody, as set forth in Table 4, below, and incubated for 20 minutes at room temperature.
The antibody-labeled cells were rinsed twice by centrifugation using washing buffer (HBSS+1% BSA+0.1% sodium azide, sterile-filtered). One hundred (100) μL of whole blood was aliquotted into each well of a deep-well polypropylene plate. Peptides were added to each well to achieve the desired peptide concentration. Minimal volumes of cells (typically 10 μL of cells or approximately 50,000 cells) were added to each well. […] The samples were transferred to an analysis plate and analyzed for cell binding using FACS. In the analysis, controls for each cell type (with relevant antibody as per Table 4, but containing no peptide) were used to assess background fluorescence. […]

[2] = test system: cells of endothelial cell lineage; experiment: Additional assays characterizing binding specificity of endothelial-binding domains (EC50); type: cell-based; conditions: read-out: EC50 of endothelial-binding domain
Text: In some embodiments, a binding domain that binds specifically to a particular surface, material or composition binds at least 10%, 20%, 30%, 40%, 50%, 60%, 70%, 80%, 90%, 100%, 200%, 300%, 400%, 500%, or a higher percentage, than the binding domain binds to an appropriate control such as, for example, a different material or surface, or a protein typically used for such comparisons such as bovine serum albumin. For example, binding specificity can determined by an assay in which quantitated is a signal (e.g., fluorescence, or colorimetric) representing the relative amount of binding between a peptide and target cells, as compared to peptide and non-target cells. […] In a preferred embodiment, the binding domain has binding specificity that is additionally characterized by an EC50 of 10 μM or less, and more preferably less than 1 μM. The EC50 can be determined using any number of methods known in the art, such as by generating a concentration response curve from a binding assay in which the concentration of the peptide is titered with a known amount of material or cells for which the peptide has binding specificity (see, for example, methods described in Examples 2 and 3 herein). In such case, the EC50 represents the concentration of peptide producing 50% of the maximal binding observed for that peptide in the assay. […]

[3] = ELISA of relative binding strength of biotin-tagged peptides to stainless steel stents
Method: As a specific illustrative example, nonspecific binding sites in wells containing stainless steel stent material in polystyrene microtiter plates were blocked with a buffer containing 1% bovine serum albumin for 2 hours at room temperature. The wells and stainless steel stent material were then washed three times with PBS-T. The plate was incubated for 1 hour at room temperature with shaking at 50 rpm. Each of 17 different phage display libraries was diluted in PBS+1% BSA and was added at a concentration of 10^10 pfu/ml in a total volume of 250 μl. After a 1 hour incubation at room temperature with shaking at 50 rpm, 70 μl of bovine serum was added, and then the plates were incubated at 37° C. with shaking for 1 hour. Unbound phage were removed by washing 3 time with 300 μl of PBS-T. After the final wash, phage bound to stents were used to infect E. coli cells. The infected cells were incubated in 96 deep-well plates, containing 1 ml of growth medium (e.g., 2xYT+5 μg/ml tetracycline) per well, at 37° C. overnight with shaking. Amplified phage-containing supernatant from each well was harvested by centrifugation. Second, third, and fourth rounds of selection were performed in a similar manner to that of the first round, using 150 μl of amplified phage supernatant from the previous round as input, and diluted with 150 μl of PBS-T+1% BSA. From the fourth round of selection, 340 individual clonal phage were then isolated and tested by plating out dilutions of phage pools to obtain single plaques. To detect phage that specifically bound to a metal such as stainless steel, conventional ELISAs were performed using an anti-M13 phage antibody conjugated to horseradish-peroxidase, followed by the addition of chromogenic agent ABTS (2,2′-azinobis(3-ethylbenzthiazoline-6-sulfonic acid). Relative binding strengths of the phage were determined by testing serial dilutions of the phage for binding to stainless steel in an ELISA, using an anti-M13 phage antibody conjugated to horseradish-peroxidase, followed by the addition of chromogenic agent ABTS, and measuring the absorbance at 405 nm. In the ELISA for determining relative binding strengths, the phage titrations were done in either buffer alone, or buffer containing 20% whole blood. The DNA sequence encoding peptides that specifically bound a metallic surface was determined.
Therefore, to determine if the binding specificity for stainless steel is primarily due to the amino acids in the C-terminal half of the amino acid sequence, or if the N-terminal region also impacts binding, peptides consisting essentially of amino acid sequences illustrated as SEQ ID NO:3 and SEQ ID NO:4 were synthesized. The peptides, as listed in Table 2 as SEQ ID NOs: 1, 3, and 4 were each synthesized with a biotin tag, and then assayed for relative binding strengths by ELISA using similar methods as that used for determining the relative binding strengths of phage displaying the peptides (as previously described herein). In this assay, serial dilutions (ranging from 0 μM to 10 μM) of each of the peptides were incubated with the stainless steel stents, washed with PBS-T, and relative binding specificity was quantitated by detecting the colorometric signal resulting from the reaction of streptavidin-alkaline phosphatase (the streptavidin portion binding to the biotin-labeled peptides) with chromogenic substrate. The EC50 was determined from the titration curve. […]

[4] = ELISA of relative binding strength in buffers from pH 2 to pH 12; conditions: peptide 1 μM, buffers pH 2 to pH 12
Method: For determining the effect of pH on binding specificity, the assay for determining relative binding strengths (by ELISA) was performed in the presence of different buffers, varying in pH in a range of from pH 2 to pH 12. For example, a buffer containing glycine and water was adjusted to pH2 using HCl; an acetate buffer was adjusted to pH 4.0 (ionic strength of about 0.001 M); a phosphate buffer (NaH2PO4) was adjusted to pH 6.0 (ionic strength of about 0.012M); a phosphate buffer (NaH2PO4) was adjusted to pH 7.0 (ionic strength of about 0.019M); a tris buffer was adjusted to pH 8.0 (ionic strength of about 0.006M); an ethanolamine buffer was adjusted to pH 10.0 (ionic strength of about 0.003M); and a phosphate buffer (NaH2PO4) was adjusted to pH 12.0 (ionic strength of about 0.044M). The final concentration of each peptide in this assay was 1 μM. Tested in this assay were surface-binding domains comprising a peptide consisting essentially of the amino acid sequence illustrated as SEQ ID NO:3, and the multimers thereof (divalent version (SEQ ID NO:7) and tetravalent version (SEQ ID NO:8)).

[5] = test system: endothelial cells; experiment: Adherence of endothelial cells to coated stainless steel disks (luminescent ATP read-out); type: cell-based; conditions: coating at 10 μM for 1 hour; 25,000 endothelial cells, 10% bovine serum, 15 minutes; controls uncoated, SEQ ID NO:3 or irrelevant peptide
Method: The biofunctional coating composition comprising an amino acid sequence illustrated as SEQ ID NO:47 was then tested for its ability to selectively adhere cells of endothelial cell lineage to a metallic surface of a medical device. In this example, stainless steel disks were used to represent a metallic surface of a medical device. The disks were contacted with a buffered solution containing the biofunctional coating composition at a concentration of 10 μM for 1 hour at room temperature. As controls for non-specific binding, disks were either uncoated, or coated with the surface-binding domain comprising a peptide consisting essentially of an amino acid sequence of SEQ ID NO:3, or an irrelevant peptide (having no known binding specificity for metal or stainless steel or endothelial cells). The disks were washed with PBS, and then 25,000 endothelial cells were added in cell media containing 10% bovine serum, and incubated at room temperature for 15 minutes. The disks were washed in PBS, and the cells were then quantitated using a commercial luminescent cell viability assay system that measures intracellular ATP using a luminescent read-out. The luminescence was detected using a plate reader.

[6] = biotin-tagged peptide, serial dilutions 0 μM to 10 μM, stainless steel stents, read-out: EC50 expressed in nanomoles

EC50 [2]: < 10000 nM
Substance: FYGEVGYVGASLYAGGAS [SEQ ID NO:19]

EC50 [3, 6]: < 250 nM
Substance: NHTISKNHKKKNKNSNKTR [SEQ ID NO:4]

EC50 [3, 6]: < 250 nM
Substance: SGVVDAGVVAEDGVSGEASRSSHRTNHKKNNPKKKNKTR [SEQ ID NO:1]

EC50 [3, 6]: < 50 nM | effect of ethylene oxide sterilization on relative binding specificity for stainless steel ([3]; ethylene oxide 642 mg/L for 2 hours, compared with unsterilized peptide): minimal to no effect | EC50 ([3]; peptide subjected to ethylene oxide sterilization (642 mg/L for 2 hours), read-out: EC50 for binding to stainless steel after ethylene oxide sterilization): < 50 nM | optimum pH for binding [4]: 7.0 pH
Substance: SSHRTNHKKNNPKKKNKTR [SEQ ID NO:3]

More lines, now with the values behind:

Substance: AGSSSSVSFVAAAGSAV [SEQ ID NO:14]
binding preference between endothelial progenitor cells and endothelial cells [1]: prefer binding to endothelial progenitor cells as compared to endothelial cells

Substance: SEQ ID NO:7 (SSHRTNHKKNNPKKKNKTRGSSHRTNHKKNNPKKKNKTRG)
optimum pH for binding [4]: 7.0 pH

Substance: SSFYGEVGYVGASLYAGGASSRG-PEG-SSHRTNHKKNNPKKKNKTRG [SEQ ID NO:47]
number of endothelial cells bound to coated stainless steel disks compared with controls [5]: several fold increase

Substance: VVFAASGVAADAGWSVS [SEQ ID NO:32]
binding preference between endothelial progenitor cells and endothelial cells [1]: preference for binding endothelial cells
